In patent US5372944A, “Method for conversion of halogenated hydrocarbons to halohydrins” (The Dow Chemical Company, priority 1993, dated 1994):

Key:
TDTM-003-60-2-11 = test: Dehalogenation by double mutant strain TDTM-003-60-2-11 in shake flask with bulb feeder; type: cell-based, Rhodococcus sp.; settings: 28° C., 150 rpm, substrate from bulb feeder
From the text: (§1) For gas chromatography (GC) analysis of halogenated metabolites, cultures were centrifuged briefly to remove cells, saturated with sodium sulfate, and an equivalent volume of methylene chloride added. The suspension was vortexed vigorously, centrifuged to break the emulsion and the methylene chloride phase removed.
(§2) Analysis of all halocarbon substrates and products from culture broths was done by GC using a Hewlett Packard 5710 equipped with a 7671A Autoinjector with the following protocol:
Dehalogenation of 1,2-dichloropropane by the double mutant strain of Rhodococcus sp., designated TDTM-003-60-2-11 was assayed in the following manner: 5 mL of an overnight culture (16 hours) were used as inoculum for 50 mL MM1X4P containing 5 g/L disodium succinate in a 250 mL flask. At 4 and 8 hours growth, 10 μL of 1-chlorobutane was added to induce the dehalogenase enzyme. Following 24 hours of growth, cells were harvested by centrifugation, resuspended into 50 mL of fresh MM1X4P, and transferred to a sterile 250 mL shake flask equipped with a bulb feeder. To the bulb feeder was added 1,2-dichloropropane and incubation continued at 28° C. and 150 rpm. […] The production of halohydrin products was monitored by gas chromatography. 1 -Chloro-2-propanol and 2-chloro-1-propanol accumulate linearly in the culture broth to 74 parts-per-million (ppm) (w/v) and 20 ppm (w/v) respectively after 120 hours. The overall rate of halohydrin production is 0.60 mg/g dry cells/hr.
The procedure described in Example 6 was followed except 1,2-dichlorobutanereplaced 1-chlorobutane in the bulb feeder.
The procedure described in Example 6 was followed except 1,2,3-trichloropropane replaced 1-chlorobutane in the bulb feeder.

[1] = test system: double mutants lacking both ADH and halohydrin dehalogenase activity; test: Whole cell conversion of DCP, DCB and TCP by double mutants: kinetics, selectivity, enantioselectivity; type: cell-based, Rhodococcus species; settings: double mutants grown on succinate, induced with 1-chlorobutane
Experimental: To evaluate kinetics and selectivity of various mutants with respect to conversion of the target halocarbons, 1,2-dichloropropane (DCP), 1,2-dichloro-butane (DCB) and 1,2,3-trichloropropane (TCP) cultures were first inoculated from slants into 25 mL nutrient media in a 125 mL flask and grown overnight. Five mL were inoculated into 50 mL of MM1X4P containing 5 g/L disodium succinate in a 250 mL flask. Following 4 hours of growth and again at 8 hours, 10 μl of 1-chlorobutane was added for induction of the dehalogenase. Following 24 hours growth, cells were harvested by centrifugation and resuspended into 50 mL of fresh sterile MM1X4P and transferred to a sterile 250 mL shake flask equipped with a bulb feeder as described by Gibson, et al., supra. DCP, DCB, and TCP were added to bulb feeders and reaction progress monitored by gas chromatography (GC). Throughout the protocol, volumes were modified as needed to provide higher concentrations of cells and/or to provide identical batches of induced cells for comparative studies.
as §1, §2
Analysis for optical activity of microbially produced 2,3-dichloro-1-propanol was determined independently using two methods. […] Enantiomeric composition of DCP, DCB, and respective halohydrins can also be monitored using a derivatized cyclodexdrin gas chromatography column (CHIRALDEX™ type B-TA Column, Advanced Separation Technologies, Inc.). Enantiomeric excess was determined by a comparison of peak areas.
The double mutants were evaluated for conversion of DCP, DCB, and TCP following growth on succinate in the presence of 1-chlorobutane as an inducer of the dehalogenase. […]

[2] = test system: dehalogenase in cell free extracts of Rhodococcus Rhodochrous, TDTM-003; test: Primary screen of dehalogenase activity in cell free extracts of TDTM-003; type: biochemical
Experimental: Following overnight growth, 50 μl of 1-chlorobutane was added to induce the dehalogenase. After 24 hours induction, cells were harvested by centrifugation, resuspended in cold 10mM Tris sulfate/1 mM disodium EDTA, pH=7.5, and disrupted by sonication. Cell debris was removed by centrifugation at 10,000 rpm for 30 minutes, cell free extracts dialyzed overnight against the same buffer, and assayed without dilution for dehalogenase activity.
Free chloride or bromide was assayed qualitatively using a chloride electrode (Orion), or quantitatively using the colorimetric method (430 nm) described by J. G. Bergmann, et al., Anal. Chem., 29:241-243 (1957).
(§3) Hydrolytic dehalogenase enzyme activity was evaluated by adding an appropriate amount of cell free extract or enzyme preparation to 5.0 mL of 100 mM glycine buffer, pH=9.0 in a 7 mL glass vial. The halogenated substrate (5.0 μl) and a small stir bar were added, and the vial capped. Reaction was initiated by transfer to a 30° C. water bath equipped with a magnetic stirrer. Periodically 1.0 mL samples were removed and assayed for free halide. Rates were determined after correcting for non-enzymatic hydrolysis with an appropriate blank. A standard curve was prepared using sodium chloride.
Preliminary studies were performed on cell free extracts of TDTM-003 to evaluate the enzyme substrate selectivity, and the results of this study are shown in Table 2.

TDTM-003 = test: Utilization of carbon containing compounds for growth in liquid culture, TDTM-003; type: cell-based, Rhodococcus species; settings: strain TDTM-003, liquid culture
[3] = biological target: partially purified TDTM-003 dehalogenase (Rhodococcus sp. TDTM0003, UniProt P59336); test: Substrate profile of partially purified TDTM-003 dehalogenase; type: biochemical, Rhodococcus species TDTM-003; settings: corrected for non-enzymatic hydrolysis
Experimental: as §3
Frozen pellets from 2 liters of culture were thawed into 150 mL of 10 mM Tris sulfate buffer, pH=7.5 containing 1 mM disodium EDTA. This buffer was used throughout the entire purification. The suspension was sonicated for approximately 1 hour with ice cooling using a Microson Ultrasonic Cell Disrupter and centrifuged at 10,000 rpm for 15 minutes to remove cell debris. Supernatant was removed and the sonication/centrifugation repeated with fresh buffer to increase enzyme yield. Overall sonication efficiency was monitored by absorbence at 280 nm. Cell free extracts were combined and brought slowly to 30 percent saturation with solid ammonium sulfate. The suspension was centrifuged at 10,000 rpm for 30 minutes and the pellet discarded. The supernatant was brought to 70 percent saturation with solid ammonium sulfate and centrifugation repeated. Supernatant was discarded and the pellet taken up in a small volume of buffer and dialyzed overnight against 1 liter of the same. The preparation was applied to a 1.5×15cm column of DEAE-Sephadex equilibrated with the same buffer elution carried out with a 1 liter gradient from 0 to 400 mM ammonium sulfate. Fractions of about 7-8 mLs were collected. The active fractions were pooled and brought to 90 percent saturation with ammonium sulfate. The pellet was taken up in a minimal amount of buffer, ultrafiltered to 2.5 mL using 10,000 MWCO Novacell Ultrafiltration cell, and applied to a 1.5×90 cm Sephadex G-100 column. Elution was by gravity at 90 cm and fractions of 7-8 mLs were collected. Active fractions were poled, brought to 30 percent saturation with ammonium sulfate, and applied to a 10 ml column of Butyl-agarose equilibrated in the same. Elution was performed with a 500 mL gradient from 30 percent-0 percent ammonium sulfate. Active fractions were pooled, dialyzed and used for substrate selectivity studies.
To evaluate the substrate selectivity of haloalkane dehalogenase from isolated Rhodococcus species, an enzyme preparation from the strain designated TDTM-003 was purified by the procedure described under General Experimental. This preparation provided a dehalogenase which was approximately 50 percent pure as estimated by SDS-PAGE and was free of interfering halohydrin dehalogenase activity.
The activity of this partially purified TDTM-003 dehalogenase preparation was evaluated against various chlorinated and brominated substrates. Each enzymatic rate was corrected for non-enzymatic hydroloysis.

partially purified TDTM-003 dehalogenase, sequence (P59336 whole entry): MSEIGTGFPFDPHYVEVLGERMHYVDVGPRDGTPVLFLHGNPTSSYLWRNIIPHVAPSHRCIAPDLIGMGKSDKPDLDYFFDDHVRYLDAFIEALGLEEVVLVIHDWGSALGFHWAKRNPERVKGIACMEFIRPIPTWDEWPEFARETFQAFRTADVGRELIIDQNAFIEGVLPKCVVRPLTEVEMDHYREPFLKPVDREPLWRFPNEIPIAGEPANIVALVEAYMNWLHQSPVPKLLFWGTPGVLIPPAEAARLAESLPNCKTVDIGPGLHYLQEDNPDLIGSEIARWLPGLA

SMILES	overall rate of halohydrin production (TDTM-003-60-2-11)	in vivo rates of conversion [1]	Relative Rate of Chloride Release, 1-chlorobutane = 100 [2]	utilization as a sole source of carbon (TDTM-003)	Relative Rate of Halogen Release, 1-Chlorobutane = 100 [3]
CC(Cl)CCl (stereo not shown) [1,2-dichloropropane]	0.60 mg/g dry cells/hr	0.30 mg product/g dry cells/hr	4.2	does not utilize	5.800
ClCC(Cl)CCl [1,2,3-trichloropropane]	2.39 mg/g dry cells/hr	1.06 mg product/g dry cells/hr	23		18.000
CCC(Cl)CCl (stereo not shown) [1,2-dichlorobutane]	2.47 mg/g dry cells/hr	1.29 mg product/g dry cells/hr	108		33.000
